From patent EP0153845A2, “CRF analogs” (THE SALK INSTITUTE FOR BIOLOGICAL STUDIES, priority 1984, dated 1985)
Square brackets hold non-standard residues; d marks the D form. Ends that are not written are not given here. Peptide text beside a SMILES is read from it. hArg = N=C(N)NCCCC[C@H](N)C(=O)O; Nle = CCCC[C@H](N)C(=O)O; Orn = NCCC[C@H](N)C(=O)O

Tests used:
[1] = molecular target: T1, cultured rat pituitary cells (Rattus norvegicus, UniProt P35353); assay: Block of ACTH and β-endorphin secretion by cultured rat pituitary cells by CRF antagonists (procedure of Example XLIII); assay type: cell-based; conditions: general procedure of Example XLIII
T1 sequence (P35353 24-415): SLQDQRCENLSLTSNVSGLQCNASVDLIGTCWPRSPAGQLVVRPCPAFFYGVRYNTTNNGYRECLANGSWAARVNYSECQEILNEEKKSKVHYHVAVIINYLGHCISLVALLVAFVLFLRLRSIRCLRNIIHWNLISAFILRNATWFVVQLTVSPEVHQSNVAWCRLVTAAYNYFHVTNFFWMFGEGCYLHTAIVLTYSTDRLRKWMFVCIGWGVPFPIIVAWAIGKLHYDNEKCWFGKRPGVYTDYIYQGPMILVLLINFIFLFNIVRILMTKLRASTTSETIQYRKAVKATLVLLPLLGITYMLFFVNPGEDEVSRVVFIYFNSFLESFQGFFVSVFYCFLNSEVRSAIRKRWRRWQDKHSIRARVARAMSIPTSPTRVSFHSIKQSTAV
Method: The effectiveness of synthetic CRF antagonists to block the secretion of ACTH and B-endorphin by cultured rat pituitary cells is measured using the procedure as generally set forth in Vale et al., Endocrinology, 91, 562 (1972). In vivo testing is carried out using the general procedure set forth in C. Rivier et al., Science, 218, 377 (1982).

[2] = molecular target: T1, cultured rat pituitary cells; assay: Stimulation of ACTH and β-endorphin secretion by cultured rat pituitary cells (general procedure of Example III); assay type: cell-based; conditions: general procedure of Example III
Method: The synthetic peptide AHC and oCRF were examined for their effects on the secretion of ACTH and B-endorphin in vitro and was also in vivo. The potency of synthetic oCRF to stimulate the secretion of ACTH and β-endorphin by cultured rat pituitary cells was measured using the procedure as generally set forth in Endocrinology, 91, 562 (1972). […] In.vivo testing is carried out using the general procedure set forth in C. Rivier et al., Science, 218, 377 (1982).

[3] = Lowering of blood pressure, in vivo testing by the general procedure of Example III

| Molecule | secretion of ACTH and β-END-LI (antagonist test) [1] | secretion of ACTH and β-END-LI [2] | lowering of blood pressure [3] |
| --- | --- | --- | --- |
| CCCC[C@H](NC(=O)[C@@H](NC(=O)[C@H](CCC(=O)O)NC(=O)[C@H](CC(C)C)NC(=O)[C@H](CC(C)C)NC(=O)[C@H](CCCCN)NC(=O)[C@H](CCCNC(=N)N)NC(=O)[C@H](CC(N)=O)NC(=O)[C@H](CO)NC(=O)[C@H](Cc1c[nH]cn1)NC(=O)[C@H](C)NC(=O)[C@H](CCC(N)=O)NC(=O)[C@H](CCC(N)=O)NC(=O)[C@H](C)NC(=O)[C@H](CC(C)C)NC(=O)[C@H](CCC(N)=O)NC(=O)[C@H](CCC(=O)O)NC(=O)[C@H](C)NC(=O)[C@H](CCCNC(=N)N)NC(=O)[C@H](C)NC(=O)[C@H](C)NC(=O)[C@H](CCC(=O)O)NC(=O)[C@H](CC(C)C)NC(=O)[C@@H](NC(=O)[C@H](CCC(=O)O)NC(=O)[C@H](CCCNC(=N)N)NC(=O)[C@H](CC(C)C)NC(=O)[C@H](CC(C)C)NC(=O)[C@H](Cc1c[nH]cn1)NC(=O)[C@H](Cc1ccccc1)NC(=O)[C@@H](NC(=O)[C@H](CC(C)C)NC(=O)[C@@H](N)CC(=O)O)[C@@H](C)O)C(C)C)[C@@H](C)CC)C(N)=O [[Ala, Leu^38, Nle^41]-hCRF(9-41)] (H-DLTFHLLREVLEAARAEQLAQQAHSNRKLLEI[Nle]-NH2) | inhibits | – | – |
| CCCC[C@H](NC(=O)[C@@H](NC(=O)[C@@H](N)CC(C)C)[C@@H](C)O)C(=O)N[C@@H](Cc1c[nH]cn1)C(=O)N[C@@H](CC(C)C)C(=O)N[C@@H](CC(C)C)C(=O)N[C@@H](CCCNC(=N)N)C(=O)N[C@@H](CCC(=O)O)C(=O)N[C@H](C(=O)N[C@@H](CC(C)C)C(=O)N[C@@H](CCC(=O)O)C(=O)N[C@@H](CCSC)C(=O)N[C@@H](C)C(=O)N[C@@H](CCCNC(=N)N)C(=O)N[C@@H](C)C(=O)N[C@@H](CCC(=O)O)C(=O)N[C@@H](CCC(N)=O)C(=O)N[C@@H](CC(C)C)C(=O)N[C@@H](C)C(=O)N[C@@H](CCC(N)=O)C(=O)N[C@@H](CCC(N)=O)C(=O)N[C@@H](C)C(=O)N[C@@H](Cc1c[nH]cn1)C(=O)N[C@@H](CO)C(=O)N[C@@H](CC(N)=O)C(=O)N[C@@H](CCCNC(=N)N)C(=O)N[C@@H](CCCCN)C(=O)N[C@@H](CC(C)C)C(=O)N[C@@H](CCSC)C(=O)N[C@@H](CCC(=O)O)C(=O)N[C@H](C(=O)N[C@H](C(N)=O)[C@@H](C)CC)[C@@H](C)CC)C(C)C [[N1e^12]-hCRF(10-41)] (H-LT[Nle]HLLREVLEMARAEQLAQQAHSNRKLMEII-NH2) | inhibits | – | – |
| CCCC[C@H](NC(=O)[C@H](CCC(=O)O)NC(=O)[C@H](CC(C)C)NC(=O)[C@H](CCCC)NC(=O)[C@H](CCC(=O)O)NC(=O)[C@H](CCCNC(=N)N)NC(=O)[C@H](CC(C)C)NC(=O)[C@H](CC(C)C)NC(=O)[C@H](Cc1c[nH]cn1)NC(=O)[C@H](Cc1ccccc1)NC(=O)[C@@H](NC(=O)[C@H](CC(C)C)NC(=O)[C@@H](N)CC(=O)O)[C@@H](C)O)C(=O)N[C@@H](C)C(=O)N[C@@H](CCCCN)C(=O)N[C@@H](C)C(=O)N[C@@H](CCC(=O)O)C(=O)N[C@@H](CCC(N)=O)C(=O)N[C@@H](CCC(=O)O)C(=O)N[C@@H](C)C(=O)N[C@@H](CCC(=O)O)C(=O)N[C@@H](CCC(N)=O)C(=O)N[C@@H](C)C(=O)N[C@@H](C)C(=O)N[C@@H](CC(C)C)C(=O)N[C@@H](CC(N)=O)C(=O)N[C@@H](CCCNC(=N)N)C(=O)N[C@@H](CC(C)C)C(=O)N[C@@H](CC(C)C)C(=O)N[C@@H](CC(C)C)C(=O)N[C@@H](CCC(=O)O)C(=O)N[C@@H](CCC(=O)O)C(=O)N[C@@H](C)C(N)=O [[Nie^18,21]-AHC(9-41)] (H-DLTFHLLRE[Nle]LE[Nle]AKAEQEAEQAALNRLLLEEA-NH2) | inhibits | – | – |
| H-SEEPPISLDLTFHLLREVLE[Nle]A[hArg]AEQLAQQAHLNRKLMEE[Nle]-NH2 | – | stimulates | very significant lowering of blood pressure |
| H-SEEPPISLDLTLELLREMLEME[Orn]AEKEAEQAALNRLLLEEA-NH2 | – | stimulates | very significant lowering of blood pressure |
| H-SEEPPISLELTFHLLREVLE[Nle]ARAEQLAEQAHLNRKLMEII-NH2 [[Glu^9, Nle^21, Glu^29, Leu^33]-rCRF] | – | stimulates | very significant lowering of blood pressure to a greater extent than rCRF |
| H-SEEPPIS[Nle]DLSFHLLREVLEMARAEQLAQQAHLNRKLMEEI-NH2 [[Nle^8, Ser^11, Leu^33, Glu^40]-rCRF] | – | stimulates | very significant lowering of blood pressure |
| H-SQEPPISLDLTFALLREMLEMAKAEQEAEQAALNRLLLEEA-NH2 [[Ala^13]-AHC] | – | stimulates | very significant lowering of blood pressure |
| H-SQEPPISLDLTFHLLREVLE[Nle]TKADQLAEQAHSNRKLLDIA-NH2 [[Nle^21,Glu^29]-oCRF] | – | stimulates | very significant lowering of blood pressure |
| H-SQEPPISLDLTFHLLRE[Nle]LE[Nle]AKAEQEAEQAALNRLLLEEA-NH2 [[Nle^18, ^21]-AHC] | – | stimulates | very significant lowering of blood pressure |
| H-SQEPPISLDLTFHLLRE[Nle]LE[Nle]TKADQLRQQAHSNRKLLDIA-NH2 [[Nle^18,21,Arg^28]-oCRF] | – | stimulates | very significant lowering of blood pressure |
| H-SQEPPISLDLTLELLREMLEMAKAEQEAEQAALNRLYLEEA-NH2 [[Leu^12, G1u^13, Tyr^37]-AHC] | – | stimulates | very significant lowering of blood pressure |
| H-SQEPPISLELTFHLLRE[Nle]LE[Nle]AKAEQEAEQAALNRLLLEEA-NH2 [[Glu^9, Nle^18' ^21]-AHC] | – | stimulates | very significant lowering of blood pressure |
| H-SQE[dP]PISLDLTFHLLRE[Nle]LE[Nle]AKAEQEAEQAALNRLLLEEA-NH2 [[D-Pro^4, Nle^18,21]-AHC] | – | stimulates | very significant lowering of blood pressure |
| H-SQ[dY][dP]PISLDLTFHLLRE[Nle]LE[Nle]AKAEQEAEQAALNRLLLEEA-NH2 [[D-Tyr^3, D-Pro^4, Nle^18, ^21]-AHC] | – | stimulates | very significant lowering of blood pressure |
| H-YSEEPPISLDLTFHLLREVLEMARAEQLAEQAHSNRKLMEII-NH2 [[Tyr-Ser^1, Glu^29]-rCRF] | – | stimulates | very significant lowering of blood pressure |
| SEEPPISLDLTFHLLREVLEMTRAEQLAEQAHSNRKLMEEI-NH2 [[Thr^22, Glu^29,40]-rCRF] | – | stimulates | very significant lowering of blood pressure |
| SQEPPISLDLTFHLLREVLEMA[Orn]AEQLAEQAHSNRKLLEII-NH2 [[Gln^2, Orn^23, Glu^29, Leu^38]-rCRF] | – | stimulates | very significant lowering of blood pressure |
